# Tested on: Key Grass and Sedge Weeds as well as Grass Crops
# Test: Post-emergent Test II herbicidal activity (Table 6)
# Type: in vivo
# Conditions: post-emergence, 336 h, CYPES: yellow nutsedge (Cyperus esculentus), 70 g ai/ha, read-out: Visual Growth Reduction (%) 14 Days After Application, CYPES
# How it was run: (§1)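 Post-emergence foliar spray, 187 L/ha, track sprayer at 43 cm above canopy. Carrier: acetone/water/IPA/DMSO/Atplus 411F/Triton X-155. Plants at 1st–2nd true leaf; subirrigated afterwards; % injury scored visually at 14 d.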
row,Structure (SMILES),pest or weed control at 70 g/ha [%]
1,C#Cc1ccc(-c2nc(C(=O)OC)c(Cl)c(N)c2F)c(F)c1 [Compound 121],45 to 59

# Same assay, conditions: post-emergence, 336 h, CYPES: yellow nutsedge (Cyperus esculentus), 140 g ai/ha, read-out: Visual Growth Reduction (%) 14 Days After Application, CYPES
row,Structure (SMILES),pest or weed control at 140 g/ha [%]
1,C#Cc1ccc(-c2nc(C(=O)OC)c(Cl)c(N)c2F)c(F)c1 [Compound 121],45 to 59

# Same assay, conditions: post-emergence, 336 h, DIGSA: crabgrass (Digitaria sanguinalis), 70 g ai/ha, read-out: Visual Growth Reduction (%) 14 Days After Application, DIGSA
row,Structure (SMILES),pest or weed control at 70 g/ha [%]
1,C#Cc1ccc(-c2nc(C(=O)OC)c(Cl)c(N)c2F)c(F)c1 [Compound 121],0 to 29

# Same assay, conditions: post-emergence, 336 h, DIGSA: crabgrass (Digitaria sanguinalis), 140 g ai/ha, read-out: Visual Growth Reduction (%) 14 Days After Application, DIGSA
row,Structure (SMILES),pest or weed control at 140 g/ha [%]
1,C#Cc1ccc(-c2nc(C(=O)OC)c(Cl)c(N)c2F)c(F)c1 [Compound 121],0 to 29

# Same assay, conditions: post-emergence, 336 h, ECHCG: barnyardgrass (Echinochloa crus-galli), 70 g ai/ha, read-out: Visual Growth Reduction (%) 14 Days After Application, ECHCG
row,Structure (SMILES),pest or weed control at 70 g/ha [%]
1,C#Cc1ccc(-c2nc(C(=O)OC)c(Cl)c(N)c2F)c(F)c1 [Compound 121],0 to 29

# Same assay, conditions: post-emergence, 336 h, ECHCG: barnyardgrass (Echinochloa crus-galli), 140 g ai/ha, read-out: Visual Growth Reduction (%) 14 Days After Application, ECHCG
row,Structure (SMILES),pest or weed control at 140 g/ha [%]
1,C#Cc1ccc(-c2nc(C(=O)OC)c(Cl)c(N)c2F)c(F)c1 [Compound 121],0 to 29

# Same assay, conditions: post-emergence, 336 h, ORYSA: rice (Oryza sativa), crop, 70 g ai/ha, read-out: Visual Growth Reduction (%) 14 Days After Application, ORYSA
row,Structure (SMILES),pest or weed control at 70 g/ha [%]
1,C#Cc1ccc(-c2nc(C(=O)OC)c(Cl)c(N)c2F)c(F)c1 [Compound 121],0 to 29

# Same assay, conditions: post-emergence, 336 h, ORYSA: rice (Oryza sativa), crop, 140 g ai/ha, read-out: Visual Growth Reduction (%) 14 Days After Application, ORYSA
row,Structure (SMILES),pest or weed control at 140 g/ha [%]
1,C#Cc1ccc(-c2nc(C(=O)OC)c(Cl)c(N)c2F)c(F)c1 [Compound 121],0 to 29

# Same assay, conditions: post-emergence, 336 h, SETFA: giant foxtail (Setaria faberi), 70 g ai/ha, read-out: Visual Growth Reduction (%) 14 Days After Application, SETFA
row,Structure (SMILES),pest or weed control at 70 g/ha [%]
1,C#Cc1ccc(-c2nc(C(=O)OC)c(Cl)c(N)c2F)c(F)c1 [Compound 121],0 to 29

# Same assay, conditions: post-emergence, 336 h, SETFA: giant foxtail (Setaria faberi), 140 g ai/ha, read-out: Visual Growth Reduction (%) 14 Days After Application, SETFA
row,Structure (SMILES),pest or weed control at 140 g/ha [%]
1,C#Cc1ccc(-c2nc(C(=O)OC)c(Cl)c(N)c2F)c(F)c1 [Compound 121],0 to 29

# Same assay, conditions: post-emergence, 336 h, SORVU: grain sorghum (Sorghum vulgare), 70 g ai/ha, read-out: Visual Growth Reduction (%) 14 Days After Application, SORVU
row,Structure (SMILES),pest or weed control at 70 g/ha [%]
1,C#Cc1ccc(-c2nc(C(=O)OC)c(Cl)c(N)c2F)c(F)c1 [Compound 121],45 to 59

# Same assay, conditions: post-emergence, 336 h, SORVU: grain sorghum (Sorghum vulgare), 140 g ai/ha, read-out: Visual Growth Reduction (%) 14 Days After Application, SORVU
row,Structure (SMILES),pest or weed control at 140 g/ha [%]
1,C#Cc1ccc(-c2nc(C(=O)OC)c(Cl)c(N)c2F)c(F)c1 [Compound 121],60 to 74

# Same assay, conditions: post-emergence, 336 h, TRZSS (wheat, Triticum aestivum), crop, 70 g ai/ha, read-out: Visual Growth Reduction (%) 14 Days After Application, TRZSS
row,Structure (SMILES),pest or weed control at 70 g/ha [%]
1,C#Cc1ccc(-c2nc(C(=O)OC)c(Cl)c(N)c2F)c(F)c1 [Compound 121],0 to 29

# Same assay, conditions: post-emergence, 336 h, TRZSS (wheat, Triticum aestivum), crop, 140 g ai/ha, read-out: Visual Growth Reduction (%) 14 Days After Application, TRZSS
row,Structure (SMILES),pest or weed control at 140 g/ha [%]
1,C#Cc1ccc(-c2nc(C(=O)OC)c(Cl)c(N)c2F)c(F)c1 [Compound 121],0 to 29

# Same assay, conditions: post-emergence, 336 h, ZEAMX: maize, corn (Zea mays), crop, 70 g ai/ha, read-out: Visual Growth Reduction (%) 14 Days After Application, ZEAMX
row,Structure (SMILES),pest or weed control at 70 g/ha [%]
1,C#Cc1ccc(-c2nc(C(=O)OC)c(Cl)c(N)c2F)c(F)c1 [Compound 121],95 to 100

# Same assay, conditions: post-emergence, 336 h, ZEAMX: maize, corn (Zea mays), crop, 140 g ai/ha, read-out: Visual Growth Reduction (%) 14 Days After Application, ZEAMX
row,Structure (SMILES),pest or weed control at 140 g/ha [%]
1,C#Cc1ccc(-c2nc(C(=O)OC)c(Cl)c(N)c2F)c(F)c1 [Compound 121],95 to 100

# Tested on: Key Broadleaf Weed and Crop Species
# Test: Post-emergent Test II herbicidal activity (Table 5)
# Type: in vivo
# Conditions: post-emergence, 336 h; ABUTH: velvetleaf (Abutilon theophrasti); application rate 70 g ai/ha; 14 days after application; read-out: Visual Growth Reduction (%) 14 Days After Application, ABUTH
# How it was run: as §1
row,Structure (SMILES),pest or weed control at 70 g/ha [%]
1,C#Cc1ccc(-c2nc(C(=O)OC)c(Cl)c(N)c2F)c(F)c1 [Compound 121],85 to 94

# Same assay, conditions: post-emergence, 336 h; ABUTH: velvetleaf (Abutilon theophrasti); application rate 140 g ai/ha; 14 days after application; read-out: Visual Growth Reduction (%) 14 Days After Application, ABUTH
row,Structure (SMILES),pest or weed control at 140 g/ha [%]
1,C#Cc1ccc(-c2nc(C(=O)OC)c(Cl)c(N)c2F)c(F)c1 [Compound 121],85 to 94

# Same assay, conditions: post-emergence, 336 h; AMARE: redroot pigweed (Amaranthus retroflexus); application rate 70 g ai/ha; 14 days after application; read-out: Visual Growth Reduction (%) 14 Days After Application, AMARE
row,Structure (SMILES),pest or weed control at 70 g/ha [%]
1,C#Cc1ccc(-c2nc(C(=O)OC)c(Cl)c(N)c2F)c(F)c1 [Compound 121],0 to 29

# Same assay, conditions: post-emergence, 336 h; AMARE: redroot pigweed (Amaranthus retroflexus); application rate 140 g ai/ha; 14 days after application; read-out: Visual Growth Reduction (%) 14 Days After Application, AMARE
row,Structure (SMILES),pest or weed control at 140 g/ha [%]
1,C#Cc1ccc(-c2nc(C(=O)OC)c(Cl)c(N)c2F)c(F)c1 [Compound 121],0 to 29

# Same assay, conditions: post-emergence, 336 h; BRSNN: oilseed-rape, canola (Brassica napus); application rate 70 g ai/ha; 14 days after application; read-out: Visual Growth Reduction (%) 14 Days After Application, BRSNN
row,Structure (SMILES),pest or weed control at 70 g/ha [%]
1,C#Cc1ccc(-c2nc(C(=O)OC)c(Cl)c(N)c2F)c(F)c1 [Compound 121],85 to 94

# Same assay, conditions: post-emergence, 336 h; BRSNN: oilseed-rape, canola (Brassica napus); application rate 140 g ai/ha; 14 days after application; read-out: Visual Growth Reduction (%) 14 Days After Application, BRSNN
row,Structure (SMILES),pest or weed control at 140 g/ha [%]
1,C#Cc1ccc(-c2nc(C(=O)OC)c(Cl)c(N)c2F)c(F)c1 [Compound 121],95 to 100

# Same assay, conditions: post-emergence, 336 h; CHEAL: lambsquarters (Chenopodium album); application rate 70 g ai/ha; 14 days after application; read-out: Visual Growth Reduction (%) 14 Days After Application, CHEAL
row,Structure (SMILES),pest or weed control at 70 g/ha [%]
1,C#Cc1ccc(-c2nc(C(=O)OC)c(Cl)c(N)c2F)c(F)c1 [Compound 121],75 to 84

# Same assay, conditions: post-emergence, 336 h; CHEAL: lambsquarters (Chenopodium album); application rate 140 g ai/ha; 14 days after application; read-out: Visual Growth Reduction (%) 14 Days After Application, CHEAL
row,Structure (SMILES),pest or weed control at 140 g/ha [%]
1,C#Cc1ccc(-c2nc(C(=O)OC)c(Cl)c(N)c2F)c(F)c1 [Compound 121],95 to 100

# Same assay, conditions: post-emergence, 336 h; EPHHL: wild poinsettia (Euphorbia heterophylla); application rate 70 g ai/ha; 14 days after application; read-out: Visual Growth Reduction (%) 14 Days After Application, EPHHL
row,Structure (SMILES),pest or weed control at 70 g/ha [%]
1,C#Cc1ccc(-c2nc(C(=O)OC)c(Cl)c(N)c2F)c(F)c1 [Compound 121],45 to 59

# Same assay, conditions: post-emergence, 336 h; EPHHL: wild poinsettia (Euphorbia heterophylla); application rate 140 g ai/ha; 14 days after application; read-out: Visual Growth Reduction (%) 14 Days After Application, EPHHL
row,Structure (SMILES),pest or weed control at 140 g/ha [%]
1,C#Cc1ccc(-c2nc(C(=O)OC)c(Cl)c(N)c2F)c(F)c1 [Compound 121],95 to 100

# Same assay, conditions: post-emergence, 336 h; HELAN: sunflower (Helianthus annuus); application rate 70 g ai/ha; 14 days after application; read-out: Visual Growth Reduction (%) 14 Days After Application, HELAN
row,Structure (SMILES),pest or weed control at 70 g/ha [%]
1,C#Cc1ccc(-c2nc(C(=O)OC)c(Cl)c(N)c2F)c(F)c1 [Compound 121],85 to 94

# Same assay, conditions: post-emergence, 336 h; HELAN: sunflower (Helianthus annuus); application rate 140 g ai/ha; 14 days after application; read-out: Visual Growth Reduction (%) 14 Days After Application, HELAN
row,Structure (SMILES),pest or weed control at 140 g/ha [%]
1,C#Cc1ccc(-c2nc(C(=O)OC)c(Cl)c(N)c2F)c(F)c1 [Compound 121],95 to 100

# Same assay, conditions: post-emergence, 336 h; VIOTR: wild pansy (Viola tricolor); application rate 70 g ai/ha; 14 days after application; read-out: Visual Growth Reduction (%) 14 Days After Application, VIOTR
row,Structure (SMILES),pest or weed control at 70 g/ha [%]
1,C#Cc1ccc(-c2nc(C(=O)OC)c(Cl)c(N)c2F)c(F)c1 [Compound 121],0 to 29

# Same assay, conditions: post-emergence, 336 h; VIOTR: wild pansy (Viola tricolor); application rate 140 g ai/ha; 14 days after application; read-out: Visual Growth Reduction (%) 14 Days After Application, VIOTR
row,Structure (SMILES),pest or weed control at 140 g/ha [%]
1,C#Cc1ccc(-c2nc(C(=O)OC)c(Cl)c(N)c2F)c(F)c1 [Compound 121],0 to 29

# Tested on: not given
# Test: not given
# Conditions: not given
row,melting point [°C],Structure (SMILES)
1,186 to 188,C#Cc1ccc(-c2nc(C(=O)OC)c(Cl)c(N)c2F)c(F)c1 [Compound 121]
